Values quoted from earlier work, collected in patent publication US20230210738A1, “Low-Skin Irritating Deodorant Composition And A Method For Preparing Thereof” (Sislan (Zhuhai) Pharmaceutical Technology Co. Ltd., priority 2021, published 2023).

How the values were obtained:
[1] = tested on: bacteria; details: hexamine prepared in basic condition
[2] = hexamine as weak base

## C1N2CN3CN1CN(C2)C3 [hexamine, hexamethylenetetramine]
[1]
  antibacterial effect: capable of demonstrating an antibacterial effect
[2]
  neutralization of odoriferous, volatile organic acids: able to neutralize a number of odoriferous, volatile organic acids
